# Tests used:
# [1] = system: liver cell growth stimulation induced by growth factor TGFα; assay: Test (c): in vivo inhibition of liver cell growth stimulation induced by TGFα (BrdU uptake); settings: Rattus norvegicus; male rats, oral, inhibition of liver cell proliferation by BrdU uptake, approximate ED50
# Experimental: (c) In vivo assay for measuring the effect of a test compound (usually, ball-milled, prepared as a suspension in 0.5% polysorbate, and orally administered) in inhibiting liver cell growth stimulation induced by administration of growth factor TGFα (subcutaneous administration of 400 μg/kg, i.e., twice a usual dose, 3 hours and 7 hours respectively after administration of the test compound) in a group of male rats
# In a control group of rats, administration of TGFα causes liver cell growth stimulation as large as on average 5 times.
# Cell growth of control animals and test animals was measured in accordance with the following manner:
# On the morning of the day after a test compound (or 0.5% polysorbate in a control group) was administered, bromodeoxyuridine (BrdU; intraperitoneally 100 mg/kg) was administered to animals. Four hours later, the animals were killed and the livers were excised out. Slices were cut out from each liver, and BrdU uptake was measured in the same manner as in conventional immunohistological techniques described below:
# To calculate an approximate ED50 value on inhibition of liver cell proliferation measured by inhibition of BrdU uptake, tests were further performed using the test compound within a predetermined dose range.
# [2] = system: xenografts of the human vulval epidermoid carcinoma cell line A-431; assay: Test (d): in vivo inhibition of growth of A-431 xenografts in athymic nude mice; settings: tumor volume vs untreated control, dose of 50 mg/day/weight (kg), oral, once per day
# Experimental: (d) In vivo assay on a group of athymic nude mice (strain ONU: Alpk) for determining the effect of a test compound (usually, ball-milled, prepared as a suspension in 0.5% polysorbate, and orally administered) in inhibiting the growth of xenografts of the human vulval epidermoid carcinoma cell line A-431
# A-431 cells were maintained in a cultured product in DMEM having 5% FCS and 2 mM glutamine supplemented thereto. Freshly cultured cells were harvested by trypsinization and subcutaneously injected into both flanks of each of many donor nude mice (10000000 cells/0.1 ml/mouse). When a sufficient amount of tumorigen was obtained (about 9 to 14 days later), fragments of tumor tissue were transplanted in the flanks of recipient nude mice (test day 0). […] To these groups of mice, administration of the test compound was commenced. The test compound was administered once per day continuously for 13 days in total (including test day 7 to 19). In some tests, administration of the test compound was continued beyond test day 19, for example, to test day 26. In each case, the animals were killed on the following day and final tumor volume was calculated from the measurement values of the length and width of the tumors. The suppression percentage was calculated from the resultant tumor volume based on the control (untreated).
# [3] = system: human nasopharyngeal cancer cell line KB; assay: Test (b): in vitro inhibition of EGF-stimulated growth of KB cells (MTT); format: cell-based; settings: EGF 10 ng/ml
# Experimental: (b) In vitro assay for measuring the effect of a test compound in inhibiting growth of human nasopharyngeal cancer cell line KB by EGF-stimulation
# KB cells were seeded into wells at a density of 1×10^4 to 1.5×10^4 cells per well and grown in DMEM supplemented with 5% FCS (charcoal-stripped) for 24 hours. After incubation for 3 days, cell growth was determined based on the extent of blue color occurrence, which was produced by metabolizing a MTT tetrazolium dye. Subsequently, cell growth was determined in the presence of EGF (10 ng/ml) or in the presence of EGF (10 ng/ml) and a test compound within a predetermined concentration range. Then, an IC50 value could be calculated.
# [4] = biological target: T1, EGF receptor tyrosine kinase (Homo sapiens, UniProt P00533); assay: Test (a): in vitro inhibition of the enzyme EGF receptor tyrosine kinase; format: biochemical; settings: receptor tyrosine kinase partially purified from A-431 cells, EGF-stimulated
# T1 construct: Receptor tyrosine kinase was obtained from A-431 cells (derived from human vulval carcinoma) in partially purified form; endogenous in cells; host or cells: A-431 cells (human vulval carcinoma); solubilised membrane preparation
# T1 sequence (P00533 25-1210): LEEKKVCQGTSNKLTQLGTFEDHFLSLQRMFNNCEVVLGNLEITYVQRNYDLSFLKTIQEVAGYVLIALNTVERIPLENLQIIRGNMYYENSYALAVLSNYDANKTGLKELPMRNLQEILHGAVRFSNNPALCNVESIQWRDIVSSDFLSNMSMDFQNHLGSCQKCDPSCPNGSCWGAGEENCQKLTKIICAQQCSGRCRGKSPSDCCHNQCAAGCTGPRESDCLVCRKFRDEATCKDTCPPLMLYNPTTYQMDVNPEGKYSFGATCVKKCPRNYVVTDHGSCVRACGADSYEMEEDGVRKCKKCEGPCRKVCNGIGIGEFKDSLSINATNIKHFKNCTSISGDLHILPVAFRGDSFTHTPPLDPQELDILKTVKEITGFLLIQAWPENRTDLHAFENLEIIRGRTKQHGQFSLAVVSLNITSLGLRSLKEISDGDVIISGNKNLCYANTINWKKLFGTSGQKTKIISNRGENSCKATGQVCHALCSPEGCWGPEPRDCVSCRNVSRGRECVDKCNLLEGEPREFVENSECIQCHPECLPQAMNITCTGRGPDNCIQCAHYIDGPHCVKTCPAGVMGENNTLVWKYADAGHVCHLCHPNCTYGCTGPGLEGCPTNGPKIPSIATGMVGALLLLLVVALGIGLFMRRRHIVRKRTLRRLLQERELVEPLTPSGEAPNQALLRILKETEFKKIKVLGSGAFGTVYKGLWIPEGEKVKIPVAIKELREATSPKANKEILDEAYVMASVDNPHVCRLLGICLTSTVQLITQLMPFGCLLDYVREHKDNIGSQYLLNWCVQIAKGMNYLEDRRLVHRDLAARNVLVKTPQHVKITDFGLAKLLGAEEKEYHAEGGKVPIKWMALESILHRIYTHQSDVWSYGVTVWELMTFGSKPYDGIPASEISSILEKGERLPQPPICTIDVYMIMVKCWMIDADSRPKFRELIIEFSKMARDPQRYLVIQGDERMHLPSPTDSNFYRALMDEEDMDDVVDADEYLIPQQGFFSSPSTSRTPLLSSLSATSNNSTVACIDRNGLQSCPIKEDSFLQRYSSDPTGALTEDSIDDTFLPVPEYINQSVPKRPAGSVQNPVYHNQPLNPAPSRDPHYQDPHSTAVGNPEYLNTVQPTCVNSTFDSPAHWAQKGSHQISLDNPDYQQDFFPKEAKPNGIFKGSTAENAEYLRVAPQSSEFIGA
# T1 sequence (P01133 971-1023 partner limits assumed): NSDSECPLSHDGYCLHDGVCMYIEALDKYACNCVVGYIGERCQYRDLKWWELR
# Experimental: (a) In vitro assay for measuring the effect of a test compound in inhibiting the enzyme EGF receptor tyrosine kinase
# Receptor tyrosine kinase was obtained from A-431 cells (derived from human vulval carcinoma) in partially purified form by a method relevant to a method shown in Carpenter et al., J. Biol. Chem., 1979, 254, 4884, Cohen et. al., J. Biol. Chem., 1982, 257, 1523, and Braun et al., J. Biol. Chem., 1984, 259, 2051.
# A-431 cells were grown in Dulbecco's modified Eagle's medium (DMEM) containing 5% fetal calf serum (FCS) up to a confluent state. The resultant cells were homogenized in a hypotonic borate/EDTA buffer (pH 10.1). The homogenate was centrifuged at 400×g for 10 minutes at 0° C. to 4° C. […]
# The test compound/EGF mixture solution (5 μl) was added to the test enzyme solution (10 μl) and the mixture was incubated at 0° C. to 4° C. for 30 minutes. […] Radioactivity present in the paper-filter was measured by a liquid scintillation counter (Sequence A). […] Receptor tyrosine kinase inhibition was indicated by inhibition ratio (%), which was calculated in accordance with the following equation, provided that the measurement results of sequence A is expressed by SA, the measurement results of sequence B by SB, and the measurement results of sequence C by SC. […] Subsequently, within a concentration range of a test compound providing IC50 value, the extent of inhibition was determined.
IC50 [3] [nM],IC50 [4] [nM],SMILES,ED50 [1] [mg/kg],suppression rate in Test (d) [2] [%]
800,240,"CCOC(=O)c1ccc(CNc2ncnc(C)c2C#Cc2ccc(C(F)(F)F)cc2)o1 [Compound No. 1, Ethyl 5-{6-methyl-5-{[4-(trifluoromethyl)phenyl]ethynyl}pyrimidin-4-ylaminomethyl}-2-furancarboxylate]",< 12.1,68
700,220,"COC(=O)c1ccc(CNc2ncnc(C)c2C#Cc2ccc(C(F)(F)F)cc2)o1 [Compound No. 2, Methyl 5-(6-methyl-5-{[4-(trifluoromethyl)phenyl]ethynyl}pyrimidin-4-ylaminomethyl)-2-furancarboxylate]",< 11.8,69

# From patent US8895565B2, “Heterocyclic compound and use of the same” (priority 2009, dated 2014)
